Test results taken from article PMC12040169 (PLOS Biology, 2025).

Assay: in vitro
Conditions: human, hela cells, % viability

Compound	viability at 28.5 h, 10 µM
CCc1nc2ccc(C(=O)N(C)CCN(C)C)cn2c1N(C)C(=O)Cc1ccccc1 [CBK146858]	90.8%
CCc1nc2ccc(C(=O)N(C)CCN(C)C)cn2c1N(CC)C(=O)NCCc1ccccc1 [CBK147036]	96.4%
CCCCC(=O)N(C)c1c(C)nc2ccc(C(=O)Nc3ccc(C(N)=O)cc3)cn12 [CBK147066]	94.5%
Cc1nc2c(OCC(=O)C(C)(C)C)cccn2c1N(C)C(=O)C1CCCCC1 [CBK147145]	92.4%
Cc1nc2c(Oc3ncccn3)cccn2c1N(C)C(=O)C1CCCCC1 [CBK147161]	99.1%
Cc1nc2c(OCc3ccc(F)c(F)c3)cccn2c1N(C)C(=O)CCC1CCCC1 [CBK147202]	99.3%
CCC(CC)C(=O)N(C)c1c(C)nc2c(OCC(=O)c3ccc(F)cc3)cccn12 [CBK147239]	113%
Cc1nc2c(OCC3CCCCC3)cccn2c1N(C)CC1CC1 [CBK147279]	97.2%
Cc1nc2c(OCC(=O)c3ccc(Cl)cc3Cl)cccn2c1N(C)CC1CC1 [CBK147294]	105%
CCN(C)c1c(C)nc2c(OCc3ccccc3C(=O)OC)cccn12 [CBK147321]	95.5%
CCc1nc2c(OCCOc3ccccc3)cccn2c1N(C)C(=O)COc1ccccc1 [CBK147355]	95.2%
CCOC(=O)N(C)c1c(CC)nc2c(OCC(=O)C(C)(C)C)cccn12 [CBK147382]	94.2%
CCc1nc2c(OCCCN(C)S(C)(=O)=O)cccn2c1N(C)C(=O)c1ccco1 [CBK147435]	95%
CCc1nc2c(OCC(=O)N3CCOCC3)cccn2c1N(C)C(=O)c1ccco1 [CBK147436]	92%
CCc1nc2c(OCC=C(C)C)cccn2c1N(C)C(=O)c1cccc(OC)c1 [CBK147448]	94.3%
COc1ccc(CN(C)c2c(C)nc3c(OCC(=O)C(C)(C)C)cccn23)cc1 [CBK147458]	100%
COc1ccc(CN(C)c2c(C)nc3c(OCCc4cccc(OC)c4)cccn23)cc1 [CBK147467]	109%
CCc1nc2c(OCCOc3ccc(F)cc3)cccn2c1N(C)C(=O)c1ccncc1 [CBK147472]	93.6%
CCc1nc2c(OCCOc3ccccc3)cccn2c1N(C=O)CC(=O)N(C)C [CBK147510]	96.5%
CCc1nc2c(OCC(=O)c3ccc(Cl)cc3Cl)cccn2c1N(C)C(=O)C1CC1 [CBK147712]	89.7%
CCc1nc2c(Oc3nc4ccccc4s3)cccn2c1N(C)C(=O)C(C)C [CBK147765]	88.5%

Compound	viability at 28.5 h, 10 µM
CCCCC(=O)N(C)c1c(CC)nc2c(OCc3ccc(C#N)cc3)cccn12 [CBK147779]	94.6%
CCNC(=O)N(C)c1c(CC)nc2c(OCc3ccc(S(C)(=O)=O)cc3)cccn12 [CBK147797]	93.4%
CCc1nc2c(OCC3CCCCC3)cccn2c1N(C=O)Cc1ccc(OC)cc1 [CBK147811]	100%
C=CCOc1cccn2c(N(C=O)Cc3ccccc3)c(CC)nc12 [CBK147827]	92.2%
CCCOc1cccn2c(N(CC(=O)N(C)C)C(C)=O)c(CC)nc12 [CBK147850]	102%
CCOC(=O)C(=O)N(C)c1c(CC)nc2c(OCc3ccccc3)cccn12 [CBK147879]	86.8%
Cc1cccnc1C(NC(=O)C1CCN(CCOc2ccccc2)CC1)c1ccc(F)cc1 (centres unmarked) [CBK147892]	91.8%
Cc1cccnc1C(NC(=O)C1CCN(CCCN2C(=O)CC3CCCCC3C2=O)CC1)c1ccc(F)cc1 (centres unmarked) [CBK147910]	91.2%
COc1ccccc1C(NC(=O)C1CCN(CCn2cnc3c2c(=O)n(C)c(=O)n3C)CC1)c1ccccn1 (centres unmarked) [CBK147939]	91.7%
COc1ccccc1C(NC(=O)C1CCN(CCCN2C(=O)CC3CCCCC3C2=O)CC1)c1ccccn1 (centres unmarked) [CBK147940]	95%
COc1cc(CN2CCC(C(=O)NC(c3ccc(Cl)cc3)c3ccsc3)CC2)cc(OC)c1 (centres unmarked) [CBK147962]	95.3%
O=C(NC(c1ccc(Cl)cc1)c1ccsc1)C1CCN(CCCN2C(=O)CC3CCCCC3C2=O)CC1 (centres unmarked) [CBK147974]	85.3%
Cc1ccccc1C(NC(=O)C1CCN(C/C=C/c2ccccc2)CC1)c1ncccc1C (centres unmarked) [CBK147980]	102%
O=C(NC(c1ccc(-c2ccccc2)cc1)c1cnccn1)C1CCN(CCc2ccc(F)cc2)CC1 (centres unmarked) [CBK147981]	92.6%
Cc1ccc(C(NC(=O)C2CCN(Cc3ccc(Cl)cc3)CC2)c2ccccn2)cc1 (centres unmarked) [CBK148007]	103%
O=C(NC(c1ccc(Cl)cc1)c1cnccn1)C1CCN(Cc2ccc(Oc3ccccc3)cc2)CC1 (centres unmarked) [CBK148023]	108%
COc1ccc(C(NC(=O)C2CCN(Cc3c[nH]c4ccccc34)CC2)c2ccccn2)cc1 (centres unmarked) [CBK148033]	121%
CC(NC(=O)C1CCN(Cc2nccs2)CC1)c1ccc(F)cc1 (centres unmarked) [CBK148056]	102%
COc1cc(OC)nc(C(NC(=O)C2CCN(Cc3ccccc3F)CC2)c2ccc(Cl)cc2)n1 (centres unmarked) [CBK148152]	98%
Cc1cccnc1C(NC(=O)C1CCN(Cc2cccn2C)CC1)c1ccc(Cl)cc1 (centres unmarked) [CBK148174]	110%
COc1cc(OC)nc(C(NC(=O)C2CCN(Cc3cn(C)c4ccccc34)CC2)c2ccc(F)cc2)n1 (centres unmarked) [CBK148185]	90.7%

Compound	viability at 28.5 h, 10 µM
Cc1cccnc1C(NC(=O)C1CCN(C/C=C/c2ccco2)CC1)c1ccc(Cl)cc1 (centres unmarked) [CBK148201]	90%
COc1cc(OC)nc(C(NC(=O)C2CCN(Cc3ccc(N(C)C)cc3)CC2)c2ccc(F)cc2)n1 (centres unmarked) [CBK148204]	88.9%
COc1cc(OC)nc(C(NC(=O)C2CCN(Cc3nccs3)CC2)c2ccc(Cl)cc2)n1 (centres unmarked) [CBK148217]	85.8%
Cc1cccnc1C(NC(=O)C1CCN(Cc2ccoc2)CC1)c1ccc(Cl)cc1 (centres unmarked) [CBK148227]	102%
O=C(NC(c1ccccc1)c1ccco1)C1CCN(CCc2c[nH]c3ccccc23)CC1 (centres unmarked) [CBK148290]	100%
O=C(NC(c1ccccc1)c1ccco1)C1CCN(Cc2cccc(Cl)c2)CC1 (centres unmarked) [CBK148295]	103%
COc1ccc(C(NC(=O)C2CCN(CCn3cnc4c3c(=O)n(C)c(=O)n4C)CC2)c2ccco2)cc1 (centres unmarked) [CBK148308]	85.8%
COc1ccc(C(NC(=O)C2CCN(CCOc3ccc(Br)cc3)CC2)c2ccco2)cc1 (centres unmarked) [CBK148311]	95.8%
O=C(NC(c1ccc2ccccc2n1)c1cccs1)C1CCNCC1 (centres unmarked) [CBK148331]	98.9%
CN(C(=O)C1CCN(Cc2cccc(C(F)(F)F)c2)CC1)C(c1ccc(F)cc1)c1ccccn1 (centres unmarked) [CBK148409]	95.7%
COc1cccc(OC)c1OCCN1CCC(C(=O)NC(c2ccccc2)c2ccccn2)CC1 (centres unmarked) [CBK148419]	96.3%
O=C(CN1CCC(C(=O)NC(c2ccccc2)c2ccsc2)CC1)c1ccc(F)cc1 (centres unmarked) [CBK148432]	86.9%
O=C(NC(c1ccccc1)c1ccsc1)C1CCN(CCc2ccccc2)CC1 (centres unmarked) [CBK148433]	98.1%
O=C(NC(c1ccccc1)c1ccsc1)C1CCN(C/C=C/c2ccccc2)CC1 (centres unmarked) [CBK148449]	89.4%
O=C(NC(c1cccnc1)c1ccc2c(c1)OCO2)C1CCN(CCc2cccs2)CC1 (centres unmarked) [CBK148503]	105%
COc1cccc(C(NC(=O)C2CCN(Cc3cccs3)CC2)c2cnccn2)c1 (centres unmarked) [CBK148572]	106%
CC(NC(=O)C1CCN(Cc2ccc(Oc3ccccc3)cc2)CC1)c1ccccc1 (centres unmarked) [CBK148618]	107%
CC(NC(=O)C1CCN(CCn2cnc3c2c(=O)n(C)c(=O)n3C)CC1)c1ccccc1 (centres unmarked) [CBK148624]	99.4%
COc1cccc(CCN2CCC(C(=O)NC(C)c3cccc4ccccc34)CC2)c1 (centres unmarked) [CBK148650]	93.3%
CC(NC(=O)C1CCN(CCCN(C)S(C)(=O)=O)CC1)c1cccc2ccccc12 (centres unmarked) [CBK148651]	104%
CC(NC(=O)C1CCN(Cc2ccccn2)CC1)c1cccc2ccccc12 (centres unmarked) [CBK148662]	98.2%

Compound	viability at 28.5 h, 10 µM
COc1ccc(OC)c(C(C)NC(=O)C2CCN(Cc3cccc(C(F)(F)F)c3)CC2)c1 (centres unmarked) [CBK148764]	95.7%
C=CCN1CCC(C(=O)NC(C)c2ccc(OC)c(OC)c2)CC1 (centres unmarked) [CBK148924]	91.1%
Cc1cc(Cl)ccc1CNC(=O)c1ccc2[nH]ccc2c1 [CBK149048]	81.7%
O=C(NCc1cccs1)c1ccc2[nH]ccc2c1 [CBK149060]	83.3%
CCN(CC)C(=O)c1ccc2[nH]ccc2c1 [CBK149072]	97.1%
O=C(c1ccc2[nH]ccc2c1)N1CCCC1 [CBK149074]	106%
O=C(NCc1nc2ccccc2[nH]1)c1ccc2[nH]ccc2c1 [CBK149079]	89%
NC(=O)CCNC(=O)c1ccc2[nH]ccc2c1 [CBK149082]	102%
COc1cccc2cc(C(=O)N3CCN(C4CCN(C)CC4)CC3)oc12 [CBK149086]	91.2%
Cc1c(C(=O)N2CCN(C3CCN(C)CC3)CC2)nnn1-c1cccc(C(F)(F)F)c1 [CBK149088]	94.2%
CC(C)c1ccc(/C=C/C(=O)N2CCN(C3CCN(C)CC3)CC2)cc1 [CBK149094]	105%
CN1CCC(N2CCN(C(=O)c3ccc4c(c3)no[n+]4[O-])CC2)CC1 [CBK149095]	92.6%
CN1CCC(N2CCN(C(=O)C3(c4ccccc4)CCCC3)CC2)CC1 [CBK149096]	99.3%
CC(=O)c1c(C)[nH]c(C(=O)N2CCN(C3CCN(C)CC3)CC2)c1C [CBK149098]	104%
COc1cc(CN2CCC[C@@H]2CN2CCCC2)cc(OC)c1OC [CBK149100]	105%
c1cncc(CN2CCC[C@@H]2CN2CCCC2)c1 [CBK149101C]	99.3%
c1ccc2[nH]c(CN3CCC[C@@H]3CN3CCCC3)nc2c1 [CBK149102]	85.9%
c1ccc2c(CCN3CCC[C@@H]3CN3CCCC3)c[nH]c2c1 [CBK149104]	87.4%
O=C(CN1CCC[C@@H]1CN1CCCC1)Nc1ncccn1 [CBK149107]	103%
c1ccc(C(CCN2CCC[C@@H]2CN2CCCC2)c2ccccc2)cc1 [CBK149109]	89.7%
